According to ChEMBL document CHEMBL1137641, “Influence of inoculum size on the selection of resistant mutants of Escherichia coli in relation to mutant prevention concentrations of marbofloxacin” (2007):
≈ marks a conversion by molar mass, not a printed value.

How the values were obtained:
Type in all cases: functional
[1] = system: Escherichia coli; assay: Bactericidal activity against marbofloxacin-resistant Escherichia coli ATCC 25922 assessed as final bacterial count using inoculum size of 10^9 CFU/mL inside the mutant selection window for 100% of time
[2] = system: Escherichia coli; assay: Bactericidal activity against marbofloxacin-susceptible Escherichia coli ATCC 25922 assessed as area between the control curve and time kill curve using inoculum size of 10^5 CFU/mL inside the mutant selection window for 0% of time
[3] = system: Escherichia coli; assay: Bactericidal activity against marbofloxacin-susceptible Escherichia coli ATCC 25922 assessed as area between the control curve and time kill curve using inoculum size of 10^7 CFU/mL inside the mutant selection window for 0% of time
[4] = T>MIC in Escherichia coli ATCC 25922 at time with in mutant selection window of 0%
[5] = Effect on Escherichia coli ATCC 25922 assessed as time at which drug concentration above the mutant prevention concentration at time with in mutant selection window of 100%
[6] = system: Escherichia coli; assay: Bactericidal activity against marbofloxacin-susceptible Escherichia coli ATCC 25922 assessed as area between the control curve and time kill curve using inoculum size of 10^7 CFU/mL inside the mutant selection window for 100% of time
[7] = system: Escherichia coli; assay: Bactericidal activity against marbofloxacin-susceptible Escherichia coli ATCC 25922 assessed as area between the control curve and time kill curve using inoculum size of 10^5 CFU/mL inside the mutant selection window for 100% of time
[8] = system: Escherichia coli; assay: Bactericidal activity against marbofloxacin-susceptible Escherichia coli ATCC 25922 assessed as final bacterial count using inoculum size of 10^7 CFU/mL inside the mutant selection window for 25% of time
[9] = system: Escherichia coli; assay: Bactericidal activity against marbofloxacin-resistant Escherichia coli ATCC 25922 assessed as area between the control curve and time kill curve using inoculum size of 10^5 CFU/mL inside the mutant selection window for 100% of time
[10] = system: Escherichia coli; assay: Bactericidal activity against marbofloxacin-susceptible Escherichia coli ATCC 25922 assessed as final bacterial count using inoculum size of 10^7 CFU/mL inside the mutant selection window for 0% of time
[11] = system: Escherichia coli; assay: Bactericidal activity against marbofloxacin-susceptible Escherichia coli ATCC 25922 assessed as final bacterial count using inoculum size of 10^9CFU/mL inside the mutant selection window for 0% of time
[12] = system: Escherichia coli; assay: Bactericidal activity against marbofloxacin-resistant Escherichia coli ATCC 25922 assessed as final bacterial count using inoculum size of 10^5 CFU/mL inside the mutant selection window for 100% of time
[13] = system: Escherichia coli; assay: Bactericidal activity against marbofloxacin-susceptible Escherichia coli ATCC 25922 assessed as final bacterial count using inoculum size of 10^9CFU/mL inside the mutant selection window for 25% of time
[14] = Effect on Escherichia coli ATCC 25922 assessed as time at which drug concentration above the mutant prevention concentration at time with in mutant selection window of 0%
[15] = system: Escherichia coli; assay: Antibacterial activity against Escherichia coli ATCC 25922 by microdilution method
[16] = system: Escherichia coli; assay: Bactericidal activity against marbofloxacin-susceptible Escherichia coli ATCC 25922 assessed as area between the control curve and time kill curve using inoculum size of 10^9 CFU/mL inside the mutant selection window for 0% of time
[17] = system: Escherichia coli; assay: Bactericidal activity against marbofloxacin-susceptible Escherichia coli ATCC 25922 assessed as final bacterial count using inoculum size of 10^7 CFU/mL inside the mutant selection window for 100% of time
[18] = system: Escherichia coli; assay: Bactericidal activity against marbofloxacin-susceptible Escherichia coli ATCC 25922 assessed as area between the control curve and time kill curve using inoculum size of 10^7 CFU/mL inside the mutant selection window for 25% of time
[19] = system: Escherichia coli; assay: Bactericidal activity against marbofloxacin-susceptible Escherichia coli ATCC 25922 assessed as final bacterial count using inoculum size of 10^5 CFU/mL inside the mutant selection window for 25% of time
[20] = system: Escherichia coli; assay: Bactericidal activity against marbofloxacin-susceptible Escherichia coli ATCC 25922 assessed as final bacterial count using inoculum size of 10^5 CFU/mL inside the mutant selection window for 0% of time
[21] = system: Escherichia coli; assay: Bactericidal activity against marbofloxacin-resistant Escherichia coli ATCC 25922 assessed as final bacterial count using inoculum size of 10^7 CFU/mL inside the mutant selection window for 100% of time
[22] = system: Escherichia coli; assay: Bactericidal activity against marbofloxacin-susceptible Escherichia coli ATCC 25922 assessed as area between the control curve and time kill curve using inoculum size of 10^5 CFU/mL inside the mutant selection window for 25% of time
[23] = T>MIC in Escherichia coli ATCC 25922 at time with in mutant selection window of 25%
[24] = system: Escherichia coli; assay: Bactericidal activity against marbofloxacin-resistant Escherichia coli ATCC 25922 assessed as area between the control curve and time kill curve using inoculum size of 10^7 CFU/mL inside the mutant selection window for 100% of time
[25] = Effect on Escherichia coli ATCC 25922 assessed as time at which drug concentration above the mutant prevention concentration at time with in mutant selection window of 25%
[26] = system: Escherichia coli; assay: Bactericidal activity against marbofloxacin-susceptible Escherichia coli ATCC 25922 assessed as final bacterial count using inoculum size of 10^5 CFU/mL inside the mutant selection window for 100% of time
[27] = system: Escherichia coli; assay: Bactericidal activity against marbofloxacin-resistant Escherichia coli ATCC 25922 assessed as area between the control curve and time kill curve using inoculum size of 10^9 CFU/mL inside the mutant selection window for 100% of time
[28] = T>MIC in Escherichia coli ATCC 25922 at time with in mutant selection window of 100%
[29] = system: Escherichia coli; assay: Bactericidal activity against marbofloxacin-susceptible Escherichia coli ATCC 25922 assessed as area between the control curve and time kill curve using inoculum size of 10^9 CFU/mL inside the mutant selection window for 25% of time
[30] = system: Escherichia coli; assay: Antibacterial activity against Escherichia coli ATCC 25922 assessed as mutant prevention concentration after 24 hrs by agar dilution method

`CN1CCN(c2c(F)cc3c(=O)c(C(=O)O)cn4c3c2OCN4C)CC1` [MARBOFLOXACIN] gave a CFU [1] of 5 ×10⁷ /ml, an ABBC [2] of 54 log10CFU/ml/hr and an ABBC [3] of 57 log10CFU/ml/hr. It also gave a T>MIC [4] of 100%, an Activity [5] of 0% and an ABBC [6] of 60 log10CFU/ml/hr. The ABBC [7] was 53 log10CFU/ml/hr, the CFU [8] was 8 ×10⁴ /ml and the ABBC [9] was 51 log10CFU/ml/hr. For the same compound, the CFU [10] was 2 ×10⁴ /ml, the CFU [11] was 1 ×10⁴ /ml and the CFU [12] was 1 ×10⁸ /ml. It also gave a CFU [13] of 3 ×10⁴ /ml, an Activity [14] of 100% and an MIC [15] of 8 ng/mL (≈ 0.0221 µM). It also gave an ABBC [16] of 51 log10CFU/ml/hr, a CFU [17] of 7 ×10⁴ /ml and an ABBC [18] of 56 log10CFU/ml/hr. It also gave a CFU [19] of 6 ×10⁴ /ml, a CFU [20] of 7 ×10³ /ml and a CFU [21] of 6 ×10⁸ /ml. For the same compound, the ABBC [22] was 54 log10CFU/ml/hr, the T>MIC [23] was 100% and the ABBC [24] was 56 log10CFU/ml/hr. The Activity [25] was 75%, the CFU [26] was 2 ×10⁶ /ml and the ABBC [27] was 44 log10CFU/ml/hr. For the same compound, the T>MIC [28] was 100%, the ABBC [29] was 53 log10CFU/ml/hr and the Activity [30] was 0.256 µg/mL.
